Laboratory results taken from publication PMC5740070 (Scientific Reports, 2017).
Where two headings read alike, the source gives them in different places. Values belong to the compound of their own block, whether it stands above or below them.

Assays:
ICK = target: T1, ICK (Homo sapiens, UniProt Q9UPZ9); assay: Reaction Biology radiometric filter binding kinase assay (10-point IC50 converted to Ki); assay type: biochemical; settings: ATP near Km; Ki calculated from 10-point IC50
T1 construct: purchased Reaction Biology Corp (contract assay)
T1 sequence (Q9UPZ9 1-632): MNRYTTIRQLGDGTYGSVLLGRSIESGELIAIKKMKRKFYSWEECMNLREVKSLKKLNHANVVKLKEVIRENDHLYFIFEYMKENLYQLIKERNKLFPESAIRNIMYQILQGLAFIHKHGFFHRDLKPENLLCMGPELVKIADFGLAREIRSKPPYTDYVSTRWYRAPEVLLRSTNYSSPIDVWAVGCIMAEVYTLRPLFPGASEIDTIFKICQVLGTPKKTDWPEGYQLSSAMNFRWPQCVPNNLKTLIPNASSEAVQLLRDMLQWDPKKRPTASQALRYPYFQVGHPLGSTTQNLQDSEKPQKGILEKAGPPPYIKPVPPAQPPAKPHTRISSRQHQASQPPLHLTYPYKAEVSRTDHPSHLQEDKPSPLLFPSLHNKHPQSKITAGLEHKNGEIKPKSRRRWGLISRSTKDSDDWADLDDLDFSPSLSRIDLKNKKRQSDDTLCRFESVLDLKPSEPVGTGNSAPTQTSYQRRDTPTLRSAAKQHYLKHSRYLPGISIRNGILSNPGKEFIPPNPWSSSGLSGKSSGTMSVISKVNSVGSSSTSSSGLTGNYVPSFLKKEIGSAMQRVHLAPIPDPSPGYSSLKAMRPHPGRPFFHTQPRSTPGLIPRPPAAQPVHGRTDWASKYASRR
Method: (§1) Ki values for each target were calculated and compared for the two drugs (Fig. 1b–d).
(§2) The ATP concentration was near the Km values for the respective kinases. For each kinase, an IC50 value was calculated from a 10-point concentration curve of the test article and converted to Ki values.

MAK = target: T2, MAK (Homo sapiens, UniProt P20794); assay: as above; assay type: biochemical; settings: ATP near Km; Ki calculated from 10-point IC50
T2 construct: purchased Reaction Biology Corp (contract assay)
T2 sequence (P20794 1-623): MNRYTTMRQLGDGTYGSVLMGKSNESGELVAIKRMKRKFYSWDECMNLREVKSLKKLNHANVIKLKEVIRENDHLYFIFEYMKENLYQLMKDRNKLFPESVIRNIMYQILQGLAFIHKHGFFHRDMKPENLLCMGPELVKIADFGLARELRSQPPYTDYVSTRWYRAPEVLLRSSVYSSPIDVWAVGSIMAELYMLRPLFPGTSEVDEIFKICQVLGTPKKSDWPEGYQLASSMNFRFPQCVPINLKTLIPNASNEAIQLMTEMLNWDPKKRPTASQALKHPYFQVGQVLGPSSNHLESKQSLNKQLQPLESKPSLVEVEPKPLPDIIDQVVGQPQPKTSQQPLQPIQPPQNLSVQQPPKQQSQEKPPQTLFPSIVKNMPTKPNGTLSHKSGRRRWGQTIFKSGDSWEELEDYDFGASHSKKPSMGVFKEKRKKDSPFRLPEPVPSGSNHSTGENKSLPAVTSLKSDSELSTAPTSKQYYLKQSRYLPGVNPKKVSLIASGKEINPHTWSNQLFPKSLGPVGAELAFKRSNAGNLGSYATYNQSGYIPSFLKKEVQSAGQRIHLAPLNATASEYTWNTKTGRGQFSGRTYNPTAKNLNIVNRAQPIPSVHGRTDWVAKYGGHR
Method: as §1, §2

[1] = cited from earlier work
[2] = test system: relapsed or refractory non-Hodgkin lymphoma (NHL); set-up: method as in PMID 28095146; settings: relapsed or refractory NHL patients, venetoclax alone; cited from earlier work
BCL-xL in OCI-LY10 cells = assay: Western blot for BCL-xL in ABC cell lines; assay type: cell-based; settings: voruciclib 5 µM, venetoclax 50 nM or combination, 24 hours
Excerpt: Error bars represent SEM.
ECL chemiluminescent substrate (Pierce) and autoradiographic film (ThermoFisher) were used for detection of signals. MCL-1 and BCL-xL signals were quantified using Image Studio Lite (LICOR Biosciences) using β actin for normalization. Student’s t-test was used to compare mean signal intensities across different conditions. The level of significance was set at 0.05.

[3] = Tolerability and body weight in systemic efficacy studies
Method: For systemic drug efficacy studies, mice were enrolled when tumors reached an average volume of 150–200 mm^3. Assignment to treatment groups was carried out via stratified randomization. Tumor dimensions were measured twice a week using digital calipers along with recording of body weight. Tumor volume was calculated using formula V = π/6 (length x width x height) in mm^3 [46]. Animals were removed from the study when either any one of the three measured dimensions of the tumor exceeded 2 cm, volume exceeded 2000 mm^3, ulceration was observed or if body weight loss greater than 20% was recorded. […] Control cohorts were administered vehicles of both drugs, and each single agent cohort was administered the vehicle of the other drug.

[4] = Modelled plasma drug levels from Phase 1 pharmacokinetic data; settings: humans, 250 mg/day oral, modelled from Phase 1 PK data
Method: (Fig. 2a). Predicted mean plasma levels, once steady state is achieved after about 5 oral doses, fluctuate between 2 and 3.5 μM with an average near 3 μM for our model parameters. […] This was accompanied by apoptosis as represented by cleaved PARP induction starting at 1-2 μM in all models (Figs 2c, S2 and S5). Complete MCL-1 repression was typically observed at 3 μM exposures. […] Maximum, average and minimum plasma levels are shown by the red, green and blue lines respectively. The parameter set derived from the PK data after 13/15 days dosing was used for the 15-day simulation for the steady state levels attained after repeat dosing. (b) Western blot analyses for RNA POL II ([…]), MCL-1, cPARP using protein lysates isolated from SU-DHL-4 cells. β actin was used as the loading control. […] Tumors were resected 4 hours after the final dose and processed for both Western blot and IHC analyses. β actin was used as loading control for the Western blot where each lane represents an individual tumor (Tumor (T) #1-9). MCL-1 signals, normalized to β actin, were quantified and the average MCL-1 signal for each condition relative to vehicle is shown in the corresponding bar graph. Error bars represent standard error of the mean (SEM). […] DAPI was used as counterstain for IHC. Representative images are shown. Scale bar: 1000 μm.

RNA POL II (pSer2) = assay: Western blot for RNA POL II (pSer2) in SU-DHL-4 cells; assay type: cell-based
[5] = test system: MCL-1 and cPARP in U2932, RIVA, OCI-LY10, NU-DHL-1, SU-DHL-4 and SU-DHL-6 cells; assay: Western blot for MCL-1 and cPARP in DLBCL cell lines; assay type: cell-based; settings: 0.5 µM–5 µM for 6 hours
Method: (§3) Maximum, average and minimum plasma levels are shown by the red, green and blue lines respectively. The parameter set derived from the PK data after 13/15 days dosing was used for the 15-day simulation for the steady state levels attained after repeat dosing. (b) Western blot analyses for RNA POL II (pSer2), MCL-1, cPARP using protein lysates isolated from SU-DHL-4 cells. β actin was used as the loading control. […] Tumors were resected 4 hours after the final dose and processed for both Western blot and IHC analyses. β actin was used as loading control for the Western blot where each lane represents an individual tumor (Tumor (T) #1-9). MCL-1 signals, normalized to β actin, were quantified and the average MCL-1 signal for each condition relative to vehicle is shown in the corresponding bar graph. Error bars represent standard error of the mean (SEM). Asterisks (*) denote p value < 0.05 calculated using the Student’s t-test for comparison of vehicle vs treatment. DAPI was used as counterstain for IHC. Representative images are shown. Scale bar: 1000 µm.
RI-1, also known as RIVA, U2932, NU-DHL-1 cell lines were purchased from DSMZ. SU-DHL-4, SU-DHL-6 were purchased from ATCC. All lines were cultured in RPMI 1640 with L-Glutamine (ThermoFisher),10% fetal bovine serum (Thermofisher), at 37 degrees Celsius, 5% CO2. […]

[6] = test system: BCL-xL in OCI-LY10 xenograft; assay: Western blot for BCL-xL in tumor lysates after oral dosing; assay type: in vivo, mice; settings: 100 mpk or 200 mpk oral gavage for 5 days, compared to vehicle
Excerpt: Each lane represents an individual tumor (Tumor (T) #1–9). BCL-xl signals, normalized to β actin, were quantified and the average BCL-xl signal for each condition relative to vehicle is shown in the corresponding bar graph. Error bars represent SEM. Asterisks (*) denote p value < 0.05 calculated using the Student’s t-test for comparison of vehicle vs treatment.
20 micrograms of protein lysate from each condition were subjected to SDS-PAGE and transferred to 0.45 micron PVDF membranes (ThermoFisher) using manufacturer’s protocol, blocked for one hour in 5% milk at room temperature, probed with primary antibodies for cPARP (rabbit CST 5625), MCL-1 (rabbit CST 39224) or BCL-xL (rabbit CST 2764), followed by corresponding HRP-conjugated secondary antibodies (Jackson ImmunoResearch). β actin (mouse CST 12262) was used as loading control. ECL chemiluminescent substrate (Pierce) and autoradiographic film (ThermoFisher) were used for detection of signals. MCL-1 and BCL-xL signals were quantified using Image Studio Lite (LICOR Biosciences) using β actin for normalization. Student’s t-test was used to compare mean signal intensities across different conditions. The level of significance was set at 0.05.

CDK4/cyc D1 = target: T3, CDK4/cyc D1 (Homo sapiens, UniProt P11802); assay: Reaction Biology radiometric filter binding kinase assay (10-point IC50 converted to Ki); assay type: biochemical; settings: ATP near Km; Ki calculated from 10-point IC50
T3 construct: purchased Reaction Biology Corp (contract assay)
T3 sequence (P11802 whole entry): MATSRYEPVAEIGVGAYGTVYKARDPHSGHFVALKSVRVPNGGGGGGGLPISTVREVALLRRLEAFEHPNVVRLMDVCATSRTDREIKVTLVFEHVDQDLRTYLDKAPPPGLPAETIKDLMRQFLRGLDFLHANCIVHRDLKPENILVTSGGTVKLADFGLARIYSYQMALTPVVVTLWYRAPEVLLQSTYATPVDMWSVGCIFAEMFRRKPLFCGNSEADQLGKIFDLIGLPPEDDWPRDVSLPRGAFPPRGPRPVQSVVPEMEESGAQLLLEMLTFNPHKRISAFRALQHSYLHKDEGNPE
T3 sequence (P24385 whole entry partner): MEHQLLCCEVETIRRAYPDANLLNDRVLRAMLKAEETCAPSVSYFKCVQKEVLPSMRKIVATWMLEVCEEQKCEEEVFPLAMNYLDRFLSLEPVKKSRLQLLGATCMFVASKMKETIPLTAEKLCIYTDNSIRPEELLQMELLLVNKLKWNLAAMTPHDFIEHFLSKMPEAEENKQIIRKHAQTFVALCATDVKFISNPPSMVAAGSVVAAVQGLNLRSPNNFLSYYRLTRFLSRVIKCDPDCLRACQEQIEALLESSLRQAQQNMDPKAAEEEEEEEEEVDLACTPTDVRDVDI
Method: as §1, §2

CDK1/cyc A = target: T4, CDK1/cyc A (Homo sapiens, UniProt P06493); assay: as above; assay type: biochemical; settings: ATP near Km; Ki calculated from 10-point IC50
T4 construct: purchased Reaction Biology Corp (contract assay)
T4 sequence (P06493 whole entry): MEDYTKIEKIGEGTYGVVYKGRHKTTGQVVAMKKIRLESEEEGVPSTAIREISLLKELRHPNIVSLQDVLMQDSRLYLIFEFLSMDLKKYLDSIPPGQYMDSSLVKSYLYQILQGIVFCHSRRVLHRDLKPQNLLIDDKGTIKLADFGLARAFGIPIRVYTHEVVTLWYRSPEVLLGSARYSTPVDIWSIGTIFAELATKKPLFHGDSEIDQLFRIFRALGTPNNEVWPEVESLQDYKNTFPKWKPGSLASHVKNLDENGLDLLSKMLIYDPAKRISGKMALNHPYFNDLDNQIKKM
T4 sequence (P20248 whole entry partner): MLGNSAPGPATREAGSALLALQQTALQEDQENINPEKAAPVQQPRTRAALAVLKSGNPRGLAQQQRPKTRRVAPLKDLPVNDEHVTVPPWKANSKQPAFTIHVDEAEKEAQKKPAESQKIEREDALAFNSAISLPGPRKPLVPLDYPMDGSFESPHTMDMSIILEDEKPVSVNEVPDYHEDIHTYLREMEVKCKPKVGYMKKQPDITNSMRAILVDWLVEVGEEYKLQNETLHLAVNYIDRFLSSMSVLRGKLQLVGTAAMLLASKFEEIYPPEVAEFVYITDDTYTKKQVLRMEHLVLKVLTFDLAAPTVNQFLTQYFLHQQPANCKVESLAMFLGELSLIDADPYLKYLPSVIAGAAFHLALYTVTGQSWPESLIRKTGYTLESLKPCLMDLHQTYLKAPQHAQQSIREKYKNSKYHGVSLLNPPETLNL
Method: as §1, §2

CDK1/cyc B = target: T5, CDK1/cyc B (Homo sapiens, UniProt P06493); assay: as above; assay type: biochemical; settings: ATP near Km; Ki calculated from 10-point IC50
T5 construct: purchased Reaction Biology Corp (contract assay)
T5 sequence (P06493 whole entry): as the sequence (P06493 whole entry) above
T5 sequence (P14635 whole entry partner): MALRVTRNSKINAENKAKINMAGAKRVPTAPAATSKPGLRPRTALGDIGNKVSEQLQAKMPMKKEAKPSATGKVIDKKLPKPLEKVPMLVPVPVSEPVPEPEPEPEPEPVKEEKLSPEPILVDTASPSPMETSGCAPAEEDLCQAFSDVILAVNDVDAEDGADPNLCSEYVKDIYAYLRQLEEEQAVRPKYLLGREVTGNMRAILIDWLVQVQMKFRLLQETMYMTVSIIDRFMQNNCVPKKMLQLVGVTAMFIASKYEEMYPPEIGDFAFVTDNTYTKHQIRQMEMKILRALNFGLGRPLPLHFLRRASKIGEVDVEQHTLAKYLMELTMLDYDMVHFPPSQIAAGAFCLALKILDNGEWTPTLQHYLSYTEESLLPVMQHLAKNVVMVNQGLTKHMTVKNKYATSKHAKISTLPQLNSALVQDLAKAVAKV
Method: as §1, §2

CDK6/cyc D1 = target: T6, CDK6/cyc D1 (Homo sapiens, UniProt Q00534); assay: as above; assay type: biochemical; settings: ATP near Km; Ki calculated from 10-point IC50
T6 construct: purchased Reaction Biology Corp (contract assay)
T6 sequence (Q00534 whole entry): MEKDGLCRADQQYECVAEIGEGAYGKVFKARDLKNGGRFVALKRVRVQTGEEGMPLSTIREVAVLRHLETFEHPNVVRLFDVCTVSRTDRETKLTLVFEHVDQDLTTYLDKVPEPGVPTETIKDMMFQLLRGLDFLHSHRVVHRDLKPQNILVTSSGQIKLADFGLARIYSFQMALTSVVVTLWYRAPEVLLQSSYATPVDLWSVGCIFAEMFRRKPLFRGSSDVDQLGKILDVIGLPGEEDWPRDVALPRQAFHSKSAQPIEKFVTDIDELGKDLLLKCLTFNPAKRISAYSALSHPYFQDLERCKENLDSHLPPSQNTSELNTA
T6 sequence (P24385 whole entry partner): as the sequence (P24385 whole entry partner) above
Method: as §1, §2

[7] = set-up: method as in earlier work; settings: 350 mg/day, one patient out of 24; cited from earlier work
[8] = test system: MCL-1 in OCI-LY10 xenograft; assay: Western blot and IHC for MCL-1 in tumors after oral dosing; assay type: in vivo, mice; settings: 100 mpk or 200 mpk oral daily for 5 days, tumors resected 4 hours after final dose
Method: as §3, with “µm. […]” for “µm.”

Ki (ICK): 11.8 nM
Ki (MAK): 1.08 nM
SMILES: CN1CC[C@H](c2c(O)cc(O)c3c(=O)cc(-c4ccccc4Cl)oc23)[C@H](O)C1 [Flavopiridol, reference compound]
oral bioavailability [1]: neither of these two agents are orally bioavailable

SMILES: CC1(C)CCC(CN2CCN(c3ccc(C(=O)NS(=O)(=O)c4ccc(NCC5CCOCC5)c([N+](=O)[O-])c4)c(Oc4cnc5[nH]ccc5c4)c3)CC2)=C(c2ccc(Cl)cc2)C1 [Venetoclax, reference compound]
median progression-free survival [2]: 1 month
overall response rate [2]: 18%
BCL-xL levels in cell lysates (BCL-xL in OCI-LY10 cells): elevated levels of BCL-xL
tolerability, toxicity and body weight changes ([3]; xenografted mice (U2932, RIVA, OCI-LY10, NU-DHL-1, SU-DHL-4), oral regimens, first two cycles of treatment): not induce any significant body weight changes

SMILES: CN1CC[C@@H](c2c(O)cc(O)c3c(=O)cc(-c4ccc(C(F)(F)F)cc4Cl)oc23)[C@@H]1CO [Voruciclib]
Predicted mean plasma levels at steady state (average) [4]: ~3 µM
phosphorylation of RNA POL II (RNA POL II (pSer2)): inhibition of phosphorylation of RNA POL II
exposure giving complete MCL-1 repression ([5]; 6 DLBCL models): ~3 µM
concentration at which cleaved PARP induction (apoptosis) starts ([5]; all 6 DLBCL models): 1 to 2 µM
BCL-xL levels in cell lysates (BCL-xL in OCI-LY10 cells): elevated levels of BCL-xL
BCL-xL levels in tumor lysates [6]: elevated levels of BCL-xL
Ki (CDK4/cyc D1): 3.96 nM
Ki (ICK): 481 nM
Ki (CDK1/cyc A): 9.1 nM
Ki (MAK): 259 nM
Ki (CDK1/cyc B): 5.4 nM
Ki (CDK6/cyc D1): 2.92 nM
tolerability, toxicity and body weight changes ([3]; mouse, in vivo, po): not induce any significant body weight changes
oral bioavailability ([1]; has been shown, reference not given): orally bioavailable
patients with dose-limiting diarrhea [7]: 4%
MCL-1 protein expression in tumors [8]: decreased in a dose-dependent manner

SMILES: CCc1cnn2c(NCc3ccc[n+]([O-])c3)cc(N3CCCC[C@H]3CCO)nc12 [dinaciclib]
oral bioavailability [1]: neither of these two agents are orally bioavailable
